System: C57BL/6 male mice
Assay: In vivo delivery study of lipid nucleic acid mixture (oral gavage, RT-qPCR of PGY-sRNA-26 in tissues)
Design: species or system mouse
Details: for oral delivery of single-stranded sRNA nucleic acids into mouse blood / oral delivery of single-stranded sRNA nucleic acids into mouse brain tissue / oral delivery of single-stranded sRNA nucleic acids into mouse femur / oral delivery of single-stranded sRNA nucleic acids into mouse heart tissue / oral delivery of single-stranded sRNA nucleic acids into mouse intestinal tissue / oral delivery of single-stranded sRNA nucleic acids into mouse kidney tissue / oral delivery of single-stranded sRNA nucleic acids into mouse liver tissue / oral delivery of single-stranded sRNA nucleic acids into mouse spleen tissue / oral delivery of single-stranded sRNA nucleic acids into mouse stomach tissue / oral delivery of single-stranded sRNA nucleic acids into mouse lung tissue / oral delivery of single-stranded sRNA nucleic acids into mouse pancreatic tissue: 100 μg lipid:10 nmol PGY-sRNA-26, sampled after 12 hours; for oral delivery of single-stranded sRNA nucleic acids into mouse heart tissue: vs free uptake group; for oral delivery of single-stranded sRNA nucleic acids into mouse intestinal tissue: intestine; for oral delivery of single-stranded sRNA nucleic acids into mouse pancreatic tissue: pancreas; for overall delivery efficacy: delivering nucleic acids into each tissue and blood tested: 100 μg lipid:10 nmol PGY-sRNA-26, all tissues and blood tested
How it was run: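 Stem-loop RT and SYBR qPCR, normalized to U6, measured PGY-sRNA-26 in blood and organs 12 h after gavage. Dosing was 10 nmol sRNA with 100 μg lipid, pre-mixed and heated 15 min at 90 °C, in 12-h-fasted mice, against saline and free-sRNA groups.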

Row | Structure (SMILES) | oral delivery of single-stranded sRNA nucleic acids into mouse blood | oral delivery of single-stranded sRNA nucleic acids into mouse brain tissue | oral delivery of single-stranded sRNA nucleic acids into mouse femur | oral delivery of single-stranded sRNA nucleic acids into mouse heart tissue | oral delivery of single-stranded sRNA nucleic acids into mouse intestinal tissue | oral delivery of single-stranded sRNA nucleic acids into mouse kidney tissue | oral delivery of single-stranded sRNA nucleic acids into mouse liver tissue | oral delivery of single-stranded sRNA nucleic acids into mouse spleen tissue | oral delivery of single-stranded sRNA nucleic acids into mouse stomach tissue | oral delivery of single-stranded sRNA nucleic acids into mouse lung tissue | oral delivery of single-stranded sRNA nucleic acids into mouse pancreatic tissue | overall delivery efficacy: delivering nucleic acids into each tissue and blood tested
1 | O=C(O)CCCCCCCCCCCCCC(=O)O [Lipid 572, pentadecanedioic acid] | can effectively orally deliver | can effectively orally deliver | can effectively orally deliver | can effectively orally deliver | can effectively orally deliver | can effectively orally deliver | can effectively orally deliver | can effectively orally deliver | can effectively orally deliver |  |  | 
2 | CCCCCC/C=C\CCCCCCCC(=O)OCCCCCCCCCCCCCCC [Lipid 821, pentadecyl (Z)-hexadec-9-enoate] | can effectively orally deliver | can effectively orally deliver | can effectively orally deliver | can effectively orally deliver | can effectively orally deliver | can effectively orally deliver | can effectively orally deliver | can effectively orally deliver | can effectively orally deliver | can effectively orally deliver | can effectively orally deliver | 
3 | CC(C(=O)O)C(=O)O [Lipid 596, 2-methylpropanedioic acid] | can effectively orally deliver | can effectively orally deliver | can effectively orally deliver | can effectively orally deliver | can effectively orally deliver | can effectively orally deliver | can effectively orally deliver | can effectively orally deliver | can effectively orally deliver | can effectively orally deliver |  | best delivery efficacy
4 | CCCCCC(=O)/C=C/C=O [Lipid 525, (E)-4-oxonon-2-enal] |  |  |  |  | can effectively orally deliver | can effectively orally deliver |  | can effectively orally deliver | can effectively orally deliver | can effectively orally deliver |  | 
5 | O=C(O)CCC(=O)O [Lipid 628, butanedioic acid] | can effectively orally deliver | can effectively orally deliver | can effectively orally deliver | can effectively orally deliver | can effectively orally deliver | can effectively orally deliver | can effectively orally deliver | can effectively orally deliver | can effectively orally deliver | can effectively orally deliver |  | best delivery efficacy
6 | C/C(=C\C(=O)O)C(=O)O [Lipid 606, (E)-2-methylbut-2-enedioic acid] | can effectively orally deliver |  | can effectively orally deliver |  |  |  | can effectively orally deliver |  |  |  |  | 
7 | CCCCC/C=C\C/C=C\CCCCCCCC(=O)OC(CC)C(C)CCC (stereo not shown) [Lipid 828, 4-methylheptan-3-yl (9Z,12Z)-octadeca-9,12-dienoate] | can effectively orally deliver | can effectively orally deliver | can effectively orally deliver | can effectively orally deliver | can effectively orally deliver | can effectively orally deliver | can effectively orally deliver | can effectively orally deliver | can effectively orally deliver | can effectively orally deliver | can effectively orally deliver | 
8 | C=CC(=O)CCCCC [Lipid 619, oct-1-en-3-one] | can effectively orally deliver | can effectively orally deliver | can effectively orally deliver |  | can effectively orally deliver | can effectively orally deliver | can effectively orally deliver | can effectively orally deliver | can effectively orally deliver |  |  | 
9 | CCCCCC1C(=O)CCC1CC(=O)O (stereo not shown) [Lipid 616, 2-(3-oxo-2-pentylcyclopentyl)-acetic acid] | can effectively orally deliver | can effectively orally deliver | can effectively orally deliver | can effectively orally deliver | can effectively orally deliver |  | can effectively orally deliver | can effectively orally deliver |  | can effectively orally deliver |  | 
10 | CC/C=C\CCOC(=O)[C@H](O)C(C)C [Lipid 816, [(Z)-hex-3-enyl] (2R)-2-hydroxy-3-methylbutanoate] | can effectively orally deliver | can effectively orally deliver | can effectively orally deliver | can effectively orally deliver | can effectively orally deliver | can effectively orally deliver | can effectively orally deliver | can effectively orally deliver | can effectively orally deliver | can effectively orally deliver | can effectively orally deliver | 

Source: patent publication US20250073255A1, “USE OF FA-TYPE LIPID COMPOUNDS IN PREPARATION OF NUCLEIC ACID DELIVERY REAGENT AND RELATED PRODUCT” (BEIJING BAISHIKANG PHARMACEUTICAL TECHNOLOGY (BSJPHARMA) …, priority 2021, published 2025)
